Counter-ions that a name gives are not always drawn.

In one data set the target is CDK4/Cyclin D (Homo sapiens, UniProt P11802). As to the kind of experiment: Assay for Inhibition of CDK4/Cyclin D. In kind it is biochemical. The conditions noted are these: 20 ng CDK4, retinoblastoma protein substrate, 25 μM ATP, 25° C. 15 minutes. The procedure:
(§1) To determine the inhibitory potency and selectivity of compounds of the present invention against CDK4 and related kinases, compounds were evaluated in standard assays routinely used to measure inhibition of cyclin-dependent kinase enzymes and other protein kinases (see for example D. W. Fry et al., J. Biol. Chem. 2001, 276, 16617-16623). The assays were carried out as described below.
Assay for Inhibition of CDK4/Cyclin D
The CDK4 enzyme assay for IC50 determination and kinetic evaluation is performed as follows. 96-well filter plates (Millipore MADVN6550, Bedford, Mass.) are used. The total volume is 0.1 mL containing buffer A (20 mM TRIS (tris[hydroxymethyl]aminomethane)) (pH 7.4), 50 mM NaCl, 1 mM dithiothreitol, 10 mM MgCl2), 25 μM ATP containing 0.25 μCi [^32P]ATP, 20 ng CDK4, 1 μg retinoblastoma protein and the test compound at appropriate dilutions in buffer A. Buffer A alone without added test compound was employed as a control for no inhibition. Buffer A containing excess EDTA was used to determine the level of background ^32P in the absence of enzyme activity. All components except the ATP are added to the wells, and the plate is placed on a plate mixer for 2 minutes. The reaction is started by adding [^32P]ATP, and the plate is incubated at 25° C. for 15 minutes. The reaction is terminated by addition of 0.1 mL 20% trichloroacetic acid (TCA). The plate is kept at 4° C. for at least 1 hour to allow the substrate to precipitate. The wells are then washed five times with 0.2 mL 10% TCA, and ^32P incorporation is determined with a beta plate counter (Wallac Inc., Gaithersburg, Md.). The IC50 of the test compound was determined using the median effect method (Chou, T-C and Talalay, P. Applications of the median effect principle for the assessment of low-dose risk of carcinogens and for the quantitation of synergism and antagonism of chemotherapeutic agents. In: New Avenues in Developmental Cancer Chemotherapy (Eds. Harrap, K. T. and Connors, T. A.), pp. 37-64. Academic Press, New York, 1987).

A further data set addresses CDK2/cyclin A (Homo sapiens, UniProt P24941). As to the kind of experiment: Assay for Inhibition of CDK2/Cyclin A. In kind it is biochemical. The conditions noted are these: 20 ng CDK2/cyclin A, retinoblastoma protein substrate, [32P]ATP, 25° C. 15 minutes. The procedure: as §1
Assay for Inhibition of CDK2/Cyclin A
CDK2 enzyme assays for IC50 determinations and kinetic evaluation are performed as follows. 96-well filter plates (Millipore MADVN6550, Bedford, Mass.) are used. The final assay volume is 0.1 mL containing buffer A (20 mM TRIS (tris[hydroxymethyl]aminomethane) (pH 7.4), 50 mM NaCl, 1 mM dithiothreitol, 10 mM MgCl2), […] ATP containing 0.25 μCi [^32P]ATP, 20 ng CDK2/cyclin A, 1 μg retinoblastoma protein, and the test compound at appropriate dilutions in buffer A (Buffer A alone without added test compound was employed as a control for no inhibition. Buffer A containing excess ethylenediamine tetra acetic acid (EDTA) was used to determine the level of background ^32P in the absence of enzyme activity). All components except the ATP are added to the wells, and the plate is placed on a plate mixer for 2 minutes. The reaction is initiated by addition of [^32P]ATP, and the plate is incubated at 25° C. for 15 minutes. The reaction is terminated by addition of 0.1 mL 20% trichloroacetic acid (TCA). The plate is kept at 4° C. for at least 1 hour to allow the substrate to precipitate. The wells are then washed five times with 0.2 mL 10% TCA, and ^32P incorporation is determined with a beta plate counter (Wallac Inc., Gaithersburg, Md.). The IC50 of the test compound was determined using the median effect method (Chou, T-C and Talalay, P. Applications of the median effect principle for the assessment of low-dose risk of carcinogens and for the quantitation of synergism and antagonism of chemotherapeutic agents. In: New Avenues in Developmental Cancer Chemotherapy (Eds. Harrap, K. T. and Connors, T. A.), pp. 37-64. Academic Press, New York, 1987).

A further data set deals with neointima formation. The conditions noted are these: in rats; Brooks E. E. et al., J. Biol. Chem. 1997; cited from earlier work.

CDK4/Cyclin D, sequence (P11802 whole entry, species assumed): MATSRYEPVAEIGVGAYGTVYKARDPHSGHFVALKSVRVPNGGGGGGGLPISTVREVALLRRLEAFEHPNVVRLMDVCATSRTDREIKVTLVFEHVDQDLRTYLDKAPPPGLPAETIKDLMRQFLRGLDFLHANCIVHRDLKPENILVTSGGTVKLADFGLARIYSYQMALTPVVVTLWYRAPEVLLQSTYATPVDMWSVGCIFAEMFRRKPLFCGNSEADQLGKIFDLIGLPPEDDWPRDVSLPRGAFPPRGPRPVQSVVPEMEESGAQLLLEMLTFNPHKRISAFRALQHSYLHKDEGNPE
CDK4/Cyclin D, sequence (P24385 whole entry partner, species assumed): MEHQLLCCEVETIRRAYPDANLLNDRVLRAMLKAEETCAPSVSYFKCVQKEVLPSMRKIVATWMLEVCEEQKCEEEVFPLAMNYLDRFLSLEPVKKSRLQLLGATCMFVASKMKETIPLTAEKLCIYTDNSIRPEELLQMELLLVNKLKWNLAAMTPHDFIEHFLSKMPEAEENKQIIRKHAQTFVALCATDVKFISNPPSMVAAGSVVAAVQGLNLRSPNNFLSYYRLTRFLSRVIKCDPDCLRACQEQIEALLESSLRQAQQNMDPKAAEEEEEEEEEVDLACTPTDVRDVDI

Take `COc1ccc(Nc2ncc3ccc(=O)n(C4CCCC4)c3n2)cn1` [Example 2, 8-Cyclopentyl-2-(6-methoxy-pyridin-3-ylamino)-8H-pyrido[2,3-d]pyrimidin-7-one]: the melting point (commonly the temperature, or range, at which the solid turns liquid) was in the range of 181 to 182 °C. On CDK4/Cyclin D, the IC50 – broadly, the concentration needed to halve the response being measured – was 82 nM. At CDK2/cyclin A, the IC50 worked out at 29 nM.

The compound `CC(=O)c1c(C)c2cnc(Nc3ccc(N4CCNCC4)nc3)nc2n(C2CCCC2)c1=O` [Example 7, 6-Acetyl-8-cyclopentyl-5-methyl-2-(6-piperazin-1-yl-pyridin-3-ylamino)-8H-pyrido[2,3-d]pyrimidin-7-one] showed a melting point of 125 °C. On CDK4/Cyclin D, the IC50 worked out at 3 nM. Also, the IC50 on CDK2/cyclin A amounted to 260 nM.

As to `Cc1c(Br)c(=O)n(C2CCCC2)c2nc(Nc3ccc(N4CCNCC4)nc3)ncc12` [Example 6, 6-Bromo-8-cyclopentyl-5-methyl-2-(6-piperazin-1-yl-pyridin-3-ylamino)-8H-pyrido[2,3-d]pyrimidin-7-one], the melting point was 290 °C. Also, the IC50 on CDK4/Cyclin D was found to be 22 nM. Moreover, the IC50 at CDK2/cyclin A came out at 3200 nM.

`COc1ccc(CNc2nc(N(CCO)CCO)nc3c2ncn3C(C)C)cc1` [CVT-313]: the “inhibition of neointima formation” value in the data set with neointima formation is listed as “greater than 80%”.

`CC(=O)c1c(C)c2cnc(Nc3ccc(N4CCOCC4)nc3)nc2n(C2CCCC2)c1=O` [Example 5, 6-Acetyl-8-cyclopentyl-5-methyl-2-(6-morpholin-4-yl-pyridin-3-ylamino)-8H-pyrido[2,3-d]pyrimidin-7-one] gave a melting point of 224 to 226 °C.

For `Cc1c(Br)c(=O)n(C2CCCC2)c2nc(Nc3ccc(N4CCOCC4)nc3)ncc12` [Example 4, 6-Bromo-8-cyclopentyl-5-methyl-2-(6-morpholin-4-yl-pyridin-3-ylamino)-8H-pyrido[2,3-d]pyrimidin-7-one], the melting point lay in the range of 254 to 256 °C. Besides, the IC50 at CDK4/Cyclin D worked out at 99 nM. The IC50 at CDK2/cyclin A is 1020 nM.

As for `O=c1c(Br)cc2cnc(Nc3ccc(N4CCNCC4)nc3)nc2n1C1CCCC1` [Example 3, 6-Bromo-8-cyclopentyl-2-(6-piperazin-1-yl-pyridin-3-ylamino)-8H-pyrido[2,3-d]pyrimidin-7-one hydrochloride salt], the values for the IC50 at CDK4/Cyclin D and at CDK2/cyclin A were 12 nM and 190 nM, respectively.

In the case of `CC(C)n1c(=O)ccc2cnc(Nc3cccnc3)nc21` [Example 1, 8-Isopropyl-2-(pyridin-3-ylamino)-8H-pyrido[2,3-d]pyrimidin-7-one], the melting point was 156 to 158 °C. Besides, the IC50 at CDK4/Cyclin D was 535 nM. Moreover, the half-inhibitory concentration (IC50) on CDK2/cyclin A was found to be 235 nM.

(Values after US20050182078A1, “2-(Pyridin-3-ylamino)-pyrido[2,3-D]pyrimidin-7-ones” (WARNER-LAMBERT COMPANY, LLC, priority 2004, published 2005).)
